{"source": "ChEMBL document CHEMBL1201862", "about": "“PubChem BioAssay data set” (2004)", "test_in_all_cases": "NCI tumour cell line growth inhibition, 48 h", "key": {"786-0": {"system": "786-0"}, "A549": {"system": "A549"}, "ACHN": {"system": "ACHN"}, "CAKI-1": {"system": "CAKI-1"}, "CCRF-CEM": {"system": "CCRF-CEM"}, "COLO 205": {"system": "COLO 205"}, "DLD-1": {"system": "DLD-1"}, "DMS-114": {"system": "DMS-114"}, "DMS-273": {"system": "DMS-273"}, "EKVX": {"system": "EKVX"}, "HCC 2998": {"system": "HCC 2998"}, "HCT-15": {"system": "HCT-15"}, "HL-60": {"system": "HL-60"}, "HOP-62": {"system": "HOP-62"}, "IGROV-1": {"system": "IGROV-1"}, "K562": {"system": "K562"}, "KM-20L2": {"system": "KM-20L2"}, "LOX IMVI": {"system": "LOX IMVI"}, "LXFL 529": {"system": "LXFL 529"}, "M14": {"system": "M14"}, "M19-MEL": {"system": "M19-MEL"}, "MOLT-4": {"system": "MOLT-4"}, "Malme-3M": {"system": "Malme-3M"}, "OVCAR-4": {"system": "OVCAR-4"}, "OVCAR-5": {"system": "OVCAR-5"}, "OVCAR-8": {"system": "OVCAR-8"}, "RPMI-8226": {"system": "RPMI-8226"}, "SK-MEL-2": {"system": "SK-MEL-2"}, "SK-MEL-5": {"system": "SK-MEL-5"}, "SK-OV-3": {"system": "SK-OV-3"}, "SN12C": {"system": "SN12C"}, "SR": {"system": "SR"}, "SW-620": {"system": "SW-620"}, "TK-10": {"system": "TK-10"}, "U-251": {"system": "U-251"}, "UACC-62": {"system": "UACC-62"}, "XF498": {"system": "XF498"}, "A498": {"system": "A498"}, "HCT-116": {"system": "HCT-116"}, "HOP-18": {"system": "HOP-18"}, "HOP-92": {"system": "HOP-92"}, "HT-29": {"system": "HT-29"}, "KM12": {"system": "KM12"}, "NCI-H23": {"system": "NCI-H23"}, "NCI-H460": {"system": "NCI-H460"}, "NCI-H522": {"system": "NCI-H522"}, "OVCAR-3": {"system": "OVCAR-3"}, "SF-268": {"system": "SF-268"}, "SF-295": {"system": "SF-295"}, "SF-539": {"system": "SF-539"}, "SK-MEL-28": {"system": "SK-MEL-28"}, "SNB-19": {"system": "SNB-19"}, "SNB-75": {"system": "SNB-75"}, "SNB-78": {"system": "SNB-78"}, "UACC-257": {"system": "UACC-257"}, "UO-31": {"system": "UO-31"}}, "note": "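Growth conditions: 96-well plates. Treatment: test compound, 48 hours, 5 concentrations. Analysis: linear interpolation between bracketing concentrations; unreached endpoints set to highest concentration. At the GI50, growth is halved.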 Calls of active or inactive are those of the source. Cut-off read from the data, not from the text of the source: active = GI50 up to about 1.1 µM and inactive = higher.", "data": [{"smiles": "CC#Cc1c(O)c2c(c(O)c1C#CC)C(=O)c1ccccc1C2=O", "values": [{"measurement": "GI50", "setting": "786-0", "value": "> 100 µM (inactive)"}, {"measurement": "GI50", "setting": "A549", "value": "> 100 µM (inactive)"}, {"measurement": "GI50", "setting": "ACHN", "value": "> 100 µM (inactive)"}, {"measurement": "GI50", "setting": "CAKI-1", "value": "> 100 µM (inactive)"}, {"measurement": "GI50", "setting": "CCRF-CEM", "value": "> 100 µM (inactive)"}, {"measurement": "GI50", "setting": "COLO 205", "value": "> 100 µM (inactive)"}, {"measurement": "GI50", "setting": "DLD-1", "value": "> 100 µM (inactive)"}, {"measurement": "GI50", "setting": "DMS-114", "value": "> 100 µM (inactive)"}, {"measurement": "GI50", "setting": "DMS-273", "value": "> 100 µM (inactive)"}, {"measurement": "GI50", "setting": "EKVX", "value": "> 100 µM (inactive)"}, {"measurement": "GI50", "setting": "HCC 2998", "value": "> 100 µM (inactive)"}, {"measurement": "GI50", "setting": "HCT-15", "value": "> 100", "unit": "µM"}, {"measurement": "GI50", "setting": "HL-60", "value": "> 100 µM (inactive)"}, {"measurement": "GI50", "setting": "HOP-62", "value": "> 100 µM (inactive)"}, {"measurement": "GI50", "setting": "IGROV-1", "value": "> 100 µM (inactive)"}, {"measurement": "GI50", "setting": "K562", "value": "> 100 µM (inactive)"}, {"measurement": "GI50", "setting": "KM-20L2", "value": "> 100 µM (inactive)"}, {"measurement": "GI50", "setting": "LOX IMVI", "value": "93.5 µM (inactive)"}, {"measurement": "GI50", "setting": "LXFL 529", "value": "11 µM (inactive)"}, {"measurement": "GI50", "setting": "M14", "value": "> 100 µM (inactive)"}, {"measurement": "GI50", "setting": "M19-MEL", "value": "> 100 µM (inactive)"}, {"measurement": "GI50", "setting": "MOLT-4", "value": "> 100 µM (inactive)"}, {"measurement": "GI50", "setting": "Malme-3M", "value": "> 100 µM (inactive)"}, {"measurement": "GI50", "setting": "OVCAR-4", "value": "> 100 µM (inactive)"}, {"measurement": "GI50", "setting": "OVCAR-5", "value": "> 100 µM (inactive)"}, {"measurement": "GI50", "setting": "OVCAR-8", "value": "> 100 µM (inactive)"}, {"measurement": "GI50", "setting": "RPMI-8226", "value": "54.5 µM (inactive)"}, {"measurement": "GI50", "setting": "SK-MEL-2", "value": "> 100 µM (inactive)"}, {"measurement": "GI50", "setting": "SK-MEL-5", "value": "> 100 µM (inactive)"}, {"measurement": "GI50", "setting": "SK-OV-3", "value": "> 100 µM (inactive)"}, {"measurement": "GI50", "setting": "SN12C", "value": "> 100 µM (inactive)"}, {"measurement": "GI50", "setting": "SR", "value": "> 100 µM (inactive)"}, {"measurement": "GI50", "setting": "SW-620", "value": "> 100 µM (inactive)"}, {"measurement": "GI50", "setting": "TK-10", "value": "> 100 µM (inactive)"}, {"measurement": "GI50", "setting": "U-251", "value": "> 100 µM (inactive)"}, {"measurement": "GI50", "setting": "UACC-62", "value": "64.6 µM (inactive)"}, {"measurement": "GI50", "setting": "XF498", "value": "> 100 µM (inactive)"}]}, {"smiles": "C=CCN(C)CN(C)c1nc(N(C)C)nc(N(C)C)n1", "values": [{"measurement": "GI50", "setting": "786-0", "value": "43.9 µM (inactive)"}, {"measurement": "GI50", "setting": "A498", "value": "> 100 µM (inactive)"}, {"measurement": "GI50", "setting": "A549", "value": "> 100 µM (inactive)"}, {"measurement": "GI50", "setting": "ACHN", "value": "> 100 µM (inactive)"}, {"measurement": "GI50", "setting": "CAKI-1", "value": "> 100 µM (inactive)"}, {"measurement": "GI50", "setting": "CCRF-CEM", "value": "33 µM (inactive)"}, {"measurement": "GI50", "setting": "COLO 205", "value": "86.3 µM (inactive)"}, {"measurement": "GI50", "setting": "DLD-1", "value": "49.4 µM (inactive)"}, {"measurement": "GI50", "setting": "DMS-114", "value": "19.7 µM (inactive)"}, {"measurement": "GI50", "setting": "DMS-273", "value": "22.3 µM (inactive)"}, {"measurement": "GI50", "setting": "EKVX", "value": "> 100 µM (inactive)"}, {"measurement": "GI50", "setting": "HCC 2998", "value": "53.2 µM (inactive)"}, {"measurement": "GI50", "setting": "HCT-116", "value": "60.7 µM (inactive)"}, {"measurement": "GI50", "setting": "HCT-15", "value": 34.3, "unit": "µM"}, {"measurement": "GI50", "setting": "HL-60", "value": "21.1 µM (inactive)"}, {"measurement": "GI50", "setting": "HOP-18", "value": "> 100 µM (inactive)"}, {"measurement": "GI50", "setting": "HOP-62", "value": "> 100 µM (inactive)"}, {"measurement": "GI50", "setting": "HOP-92", "value": "> 100 µM (inactive)"}, {"measurement": "GI50", "setting": "HT-29", "value": "> 100 µM (inactive)"}, {"measurement": "GI50", "setting": "IGROV-1", "value": "> 100 µM (inactive)"}, {"measurement": "GI50", "setting": "K562", "value": "> 100 µM (inactive)"}, {"measurement": "GI50", "setting": "KM-20L2", "value": "> 100 µM (inactive)"}, {"measurement": "GI50", "setting": "KM12", "value": "> 100 µM (inactive)"}, {"measurement": "GI50", "setting": "LOX IMVI", "value": "54 µM (inactive)"}, {"measurement": "GI50", "setting": "LXFL 529", "value": "26.1 µM (inactive)"}, {"measurement": "GI50", "setting": "M14", "value": "50.7 µM (inactive)"}, {"measurement": "GI50", "setting": "M19-MEL", "value": "> 100 µM (inactive)"}, {"measurement": "GI50", "setting": "MOLT-4", "value": "> 100 µM (inactive)"}, {"measurement": "GI50", "setting": "Malme-3M", "value": "> 100 µM (inactive)"}, {"measurement": "GI50", "setting": "NCI-H23", "value": "> 100 µM (inactive)"}, {"measurement": "GI50", "setting": "NCI-H460", "value": "11.8 µM (inactive)"}, {"measurement": "GI50", "setting": "NCI-H522", "value": "11.2 µM (inactive)"}, {"measurement": "GI50", "setting": "OVCAR-3", "value": "64.6 µM (inactive)"}, {"measurement": "GI50", "setting": "OVCAR-4", "value": "79.8 µM (inactive)"}, {"measurement": "GI50", "setting": "OVCAR-5", "value": "> 100 µM (inactive)"}, {"measurement": "GI50", "setting": "OVCAR-8", "value": "> 100 µM (inactive)"}, {"measurement": "GI50", "setting": "RPMI-8226", "value": "46.6 µM (inactive)"}, {"measurement": "GI50", "setting": "SF-268", "value": "> 100 µM (inactive)"}, {"measurement": "GI50", "setting": "SF-295", "value": "> 100 µM (inactive)"}, {"measurement": "GI50", "setting": "SF-539", "value": "> 100 µM (inactive)"}, {"measurement": "GI50", "setting": "SK-MEL-28", "value": "> 100 µM (inactive)"}, {"measurement": "GI50", "setting": "SK-MEL-2", "value": "> 100 µM (inactive)"}, {"measurement": "GI50", "setting": "SK-MEL-5", "value": "> 100 µM (inactive)"}, {"measurement": "GI50", "setting": "SK-OV-3", "value": "> 100 µM (inactive)"}, {"measurement": "GI50", "setting": "SN12C", "value": "> 100 µM (inactive)"}, {"measurement": "GI50", "setting": "SNB-19", "value": "> 100 µM (inactive)"}, {"measurement": "GI50", "setting": "SNB-75", "value": "44.1 µM (inactive)"}, {"measurement": "GI50", "setting": "SNB-78", "value": "> 100 µM (inactive)"}, {"measurement": "GI50", "setting": "SR", "value": "49.2 µM (inactive)"}, {"measurement": "GI50", "setting": "SW-620", "value": "36.3 µM (inactive)"}, {"measurement": "GI50", "setting": "TK-10", "value": "> 100 µM (inactive)"}, {"measurement": "GI50", "setting": "U-251", "value": "> 100 µM (inactive)"}, {"measurement": "GI50", "setting": "UACC-257", "value": "> 100 µM (inactive)"}, {"measurement": "GI50", "setting": "UACC-62", "value": "> 100 µM (inactive)"}, {"measurement": "GI50", "setting": "UO-31", "value": "> 100 µM (inactive)"}]}]}
